# According to patent US20250171438A1 (Agios Pharmaceuticals, Inc., priority 2022, published 2025):
# Biological target: T1, human PAH with the R408W mutation (Homo sapiens, UniProt P00439, R408W)
# T1 construct: expressed in transfected cells
# T1 sequence (P00439 1-452 R408W): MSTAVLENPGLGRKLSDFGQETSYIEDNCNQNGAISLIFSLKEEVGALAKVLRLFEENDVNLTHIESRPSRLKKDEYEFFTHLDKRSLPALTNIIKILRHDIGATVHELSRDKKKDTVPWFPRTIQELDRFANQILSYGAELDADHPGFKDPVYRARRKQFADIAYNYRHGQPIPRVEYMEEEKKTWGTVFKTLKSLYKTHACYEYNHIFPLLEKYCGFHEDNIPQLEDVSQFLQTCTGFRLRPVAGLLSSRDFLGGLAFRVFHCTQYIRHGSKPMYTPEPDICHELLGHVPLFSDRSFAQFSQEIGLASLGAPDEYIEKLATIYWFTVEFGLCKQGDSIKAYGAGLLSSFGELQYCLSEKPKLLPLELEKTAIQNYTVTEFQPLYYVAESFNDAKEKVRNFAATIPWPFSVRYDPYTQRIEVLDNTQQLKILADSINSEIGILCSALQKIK
# Experiment: Cell Based Phenylalanine Flux Assay
# Settings: A375 cells expressing human R408W PAH; 24 hrs with compound; 13C-Tyrosine by LC-MS; average where tested multiple times; read-out: AC50
row,Compound,AC50 [µM]
1,CC(C)(O)Cn1ncc(C(=O)N2CCc3[nH]cnc3C2c2nc3c(F)cccc3s2)c1C(F)F (stereo not shown) [listing 1 of 2 here],> 5
2,CC(C)(O)Cn1ncc(C(=O)N2CCc3[nH]cnc3C2c2nc3c(F)cccc3s2)c1Cl (stereo not shown) [listing 1 of 2 here],> 5
3,CC(C)(O)c1cc(C(=O)N2CCc3[nH]cnc3C2c2nc3ccccc3s2)no1 (stereo not shown) [listing 1 of 2 here],> 5
4,CC(C)(O)c1nc(C(=O)N2CCc3[nH]cnc3C2c2nc3c(F)cccc3s2)no1 (stereo not shown) [listing 1 of 2 here],> 5
5,CC(C)(O)c1cc(C(=O)N2CCc3[nH]cnc3C2c2nc3c(F)cccc3s2)no1 (stereo not shown) [listing 1 of 2 here],> 5
6,CC(C)(O)c1cc(C(=O)N2CCc3[nH]cnc3C2c2nc3c(F)cccc3s2)ns1 (stereo not shown) [listing 1 of 2 here],> 5
7,Cn1nc(C(F)(F)F)nc1C(=O)N1CCc2[nH]cnc2C1c1nc2ccccc2s1 (stereo not shown),1 to 5
8,O=C(c1ccn[nH]1)N1CCc2[nH]cnc2C1c1nc2ccccc2s1 (stereo not shown) [listing 1 of 2 here],> 5
9,Cc1nc(C(=O)N2CCc3[nH]cnc3C2c2nc3c(F)cccc3s2)n(C)n1 (stereo not shown),> 5
10,Cc1nc(C(=O)N2CCc3[nH]cnc3C2c2nc3ccccc3s2)n(C)n1 (stereo not shown),> 5
11,Cn1ncc(C(=O)N2CCc3[nH]cnc3C2c2nc3ccccc3s2)n1 (stereo not shown),> 5
12,Cn1nc(C2CC2)nc1C(=O)N1CCc2[nH]cnc2C1c1nc2c(F)cccc2s1 (stereo not shown),> 5
13,CC(C)(O)c1cc(C(=O)N2CCc3[nH]cnc3C2c2nc3ccccc3s2)sn1 (stereo not shown),> 5
14,Cn1nc(CC#N)nc1C(=O)N1CCc2[nH]cnc2C1c1nc2ccccc2s1 (stereo not shown),> 5
15,Cn1nc(C(C)(C)O)cc1C(=O)N1CCc2[nH]cnc2C1c1nc2c(F)cccc2s1 (stereo not shown),> 5
16,CC(C)(O)c1nsc(C(=O)N2CCc3[nH]cnc3C2c2nc3c(F)cccc3s2)n1 (stereo not shown),> 5
17,CC(C)(O)c1cc(C(=O)N2CCc3[nH]cnc3C2c2nc3c(F)cccc3s2)sn1 (stereo not shown),> 5
18,CC(C)(O)c1noc(C(=O)N2CCc3[nH]cnc3C2c2nc3c(F)cccc3s2)n1 (stereo not shown),> 5
19,Cn1nc(CC#N)nc1C(=O)N1CCc2[nH]cnc2C1c1nc2c(F)cccc2s1 (stereo not shown),> 5
20,Cc1cccc2sc(C3c4nc[nH]c4CCN3C(=O)c3cnn(C)c3Cl)nc12 (stereo not shown),> 5
21,O=C(c1cnn(CCO)c1Cl)N1CCc2[nH]cnc2C1c1nc2c(F)cccc2s1 (stereo not shown),> 5
22,Cn1ccc(C(=O)N2CCc3[nH]cnc3C2c2nc3c(F)cccc3s2)n1 (stereo not shown),> 5
23,Cn1nc(COC(F)(F)F)cc1C(=O)N1CCc2[nH]cnc2C1c1nc2c(F)cccc2s1 (stereo not shown),> 5

row,Compound,AC50 [µM]
1,O=C(c1cn[nH]c1)N1CCc2nc[nH]c2C1c1nc2c(F)cccc2s1 (stereo not shown),> 5
2,O=C(c1ccn[nH]1)N1CCc2[nH]cnc2C1c1nc2c(F)cccc2s1 (stereo not shown),> 5
3,Cn1ncc(C(=O)N2CCc3[nH]cnc3C2c2nc3c(F)cccc3s2)n1 (stereo not shown),> 5
4,Cn1nnc(C(=O)N2CCc3[nH]cnc3C2c2nc3c(F)cccc3s2)n1 (stereo not shown),> 5
5,[2H]C([2H])([2H])OCc1cc(C(=O)N2CCc3[nH]cnc3C2c2nc3c(F)cccc3s2)n(C)n1 (stereo not shown),> 5
6,COCc1cc(C(=O)N2CCc3[nH]cnc3C2c2nc3c(F)cccc3s2)[nH]n1 (stereo not shown),> 5
7,Cc1nc(N2CCN(C)CC2)oc1C(=O)N1CCc2[nH]cnc2C1c1nc2c(F)cccc2s1 (stereo not shown),> 5
8,Cc1nc(N2CCOCC2)oc1C(=O)N1CCc2[nH]cnc2C1c1nc2c(F)cccc2s1 (stereo not shown),> 5
9,Cn1nc(C(N)=O)cc1C(=O)N1CCc2[nH]cnc2C1c1nc2c(F)cccc2s1 (stereo not shown),> 5
10,CNC(C)(C)c1nc(C)c(C(=O)N2CCc3[nH]cnc3C2c2nc3c(F)cccc3s2)o1 (stereo not shown),> 5
11,CC(C)(O)Cn1cc(C(=O)N2CCc3[nH]cnc3C2c2nc3c(F)cccc3s2)cn1 (stereo not shown),1 to 5
12,CC(=O)Cn1cc(C(=O)N2CCc3[nH]cnc3C2c2nc3c(F)cccc3s2)cn1 (stereo not shown),1 to 5
13,CC(C)(O)Cn1ncc(C(=O)N2CCc3[nH]cnc3C2c2nc3c(F)cccc3s2)c1C(F)F (stereo not shown) [listing 2 of 2 here],1 to 5
14,CC(C)(O)Cn1ncc(C(=O)N2CCc3[nH]cnc3C2c2nc3c(F)cccc3s2)c1Cl (stereo not shown) [listing 2 of 2 here],1 to 5
15,CC(=O)Cn1ncc(C(=O)N2CCc3[nH]cnc3C2c2nc3c(F)cccc3s2)c1Cl (stereo not shown),1 to 5
16,CC(C)(O)c1cc(C(=O)N2CCc3[nH]cnc3C2c2nc3ccccc3s2)no1 (stereo not shown) [listing 2 of 2 here],1 to 5
17,CC(C)(O)c1cc(C(=O)N2CCc3[nH]cnc3C2c2nc3c(F)cccc3s2)no1 (stereo not shown) [listing 2 of 2 here],1 to 5
18,CC(C)(O)c1nc(C(=O)N2CCc3[nH]cnc3C2c2nc3c(F)cccc3s2)no1 (stereo not shown) [listing 2 of 2 here],1 to 5
19,CC(C)(O)c1cc(C(=O)N2CCc3[nH]cnc3C2c2nc3c(F)cccc3s2)ns1 (stereo not shown) [listing 2 of 2 here],1 to 5
20,Cn1cnc(C(=O)N2CCc3[nH]cnc3C2c2nc3ccccc3s2)n1 (stereo not shown),> 5
21,Cn1ccc(C(=O)N2CCc3[nH]cnc3C2c2nc3ccccc3s2)n1 (stereo not shown),1 to 5
22,O=C(c1cn[nH]c1)N1CCc2[nH]cnc2C1c1nc2ccccc2s1 (stereo not shown),1 to 5
23,O=C(c1ccn[nH]1)N1CCc2[nH]cnc2C1c1nc2ccccc2s1 (stereo not shown) [listing 2 of 2 here],1 to 5
